Measurements: patent publication US10392345B2, “Crystal of salt of novel 3-azabicyclo[3.1.0]hexane derivative and pharmaceutical use thereof” (SANWA KAGAKU KENKYUSHO CO., LTD., priority 2015, dated 2019)

Test: Mice serum protein binding assay (equilibrium dialysis, RED Device)
Type: in vitro ADME
Settings: CD-1 (ICR), mouse, pH 7.4, murine serum, 37° C., 5 to 6 hours, read-out: Protein binding rate (converted)
Experimental: The protein binding rate was determined by equilibrium dialysis method using the RED Device (8K MWCO, Rapid Equilibrium Dialysis Device, Thermo Scientific). The test substances that had been dissolved in DMSO were added to the serum that was collected from Cr1: CD-1 (ICR) mice fasted overnight, so that the final concentration of DMSO became 1% (v/v). The serum to which the test substance had been added was added to the inner side of the dialysis membrane of the RED Device, and PBS (phosphate buffer saline, pH 7.4) containing 0.01% (v/v) Tween 80 was added to the outside in accordance with the method for using the RED Device and incubated at 37° C. for 5 to 6 hours with ellipsoidal shaking at 100 rpm so that the concentration of the unbound test substance in the serum and the concentration of the test substance in the PBS reached equilibrium. […] The proteins were removed from the measurement sample by adding acetonitrile in an amount of 5-fold or more of the amount of the internal standard substance and the serum sample, and the supernatants were measured by LC/MS/MS (liquid chromatograph-triple quadrupole mass spectrometer). The serum samples were measured after suitably diluting with distilled water as necessary. […]
However, in the case when the concentration in the sample was calculated by using a calibration curve, A and B were as follows.

fraction unbound: 0.068
SMILES: CC[C@]1(c2cccc(NS(C)(=O)=O)c2)[C@@H]2CN(CC3(O)Cc4ccccc4C3)C[C@@H]21 [Comparative Compound 1, N-(3-{(1R,5S,6r)-6-ethyl-3-[(2-hydroxy-2,3-dihydro-1H-inden-2-yl)methyl]-3-azabicyclo[3.1.0]hexan-6-yl}phenyl)methanesulfonamide methanesulfonate]
